ChEMBL document CHEMBL1142480, “Use of the X-ray structure of the beta2-adrenergic receptor for drug discovery. Part 2: Identification of active compounds” (Bioorg Med Chem Lett, 2008)
pKi: −log10 of the molar value.

molecular target: Beta-2 adrenergic receptor (Homo sapiens, UniProt P07550)
Sequence (P07550 whole entry): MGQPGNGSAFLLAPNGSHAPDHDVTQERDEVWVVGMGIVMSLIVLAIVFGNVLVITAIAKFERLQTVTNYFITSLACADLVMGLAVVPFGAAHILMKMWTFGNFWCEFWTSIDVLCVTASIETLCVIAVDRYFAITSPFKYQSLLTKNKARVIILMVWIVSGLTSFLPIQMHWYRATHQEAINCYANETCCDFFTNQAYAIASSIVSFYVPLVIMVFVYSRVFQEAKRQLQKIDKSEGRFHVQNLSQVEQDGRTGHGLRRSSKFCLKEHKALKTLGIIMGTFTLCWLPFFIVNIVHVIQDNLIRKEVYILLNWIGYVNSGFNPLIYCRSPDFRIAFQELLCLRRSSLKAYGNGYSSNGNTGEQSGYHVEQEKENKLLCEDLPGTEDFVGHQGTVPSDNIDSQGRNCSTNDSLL
Description: Displacement of [3H]DHA from human beta2 adrenoceptor by liquid scintillation counter

SMILES	pKi
N#Cc1cc2c(OCC(O)CN3CCN(C(c4ccccc4)c4ccccc4)CC3)cccc2[nH]1 (centres undefined)	7.24
CC(C)(C)NCC(O)COc1cccc2[nH]cc(CC(N)=O)c12 (centres undefined)	7.63
Cc1c[nH]c2cccc(OCC(O)CN3CCN(C(c4ccccc4)c4ccccc4)CC3)c12 (centres undefined)	9.51
CC(C)(C)NCC(O)COc1cccc2oc3ccccc3c12 (centres undefined)	9.84
